PubChem BioAssay AID248 (DTP/NCI, 2004)
Where “and” joins values, the source holds several entries; their conditions need not be identical. Identical values can stand only once. Toxic doses and inconclusive results are not listed. No stated cut-off is given here; in the data, active means T/C of 150% or more; inactive means T/C below 125%.

Tested on: L1210 leukemia ip in BDF1 mice, survival T/C
Assay: NCI In Vivo Anticancer Drug Screen. Data for tumor model L1210 Leukemia (intraperitoneal) in B6D2F1 (BDF1) mice
Conditions: endpoint: mean survival time, higher = longer survival
Procedure, shortened: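 Mice bearing the transplanted tumor received compound or vehicle. Survival of the treated group was divided by that of the vehicle-treated control group to give the ratio.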

[1] = dose: 100.0 mg/kg/injection, schedule: Q04DX002 (ip), vehicle: saline with Tween-80
[2] = dose: 200.0 mg/kg/injection, schedule: Q04DX002 (ip), vehicle: saline with Tween-80
[3] = dose: 400.0 mg/kg/injection, schedule: Q04DX002 (ip), vehicle: saline with Tween-80
[4] = dose: 100.0 mg/kg/injection, schedule: Q01DX001 (ip), vehicle: saline
[5] = dose: 200.0 mg/kg/injection, schedule: Q01DX001 (ip), vehicle: saline
[6] = dose: 400.0 mg/kg/injection, schedule: Q01DX001 (ip), vehicle: saline
[7] = dose: 100.0 mg/kg/injection, schedule: Q01DX009 (ip), vehicle: saline with Tween-80
[8] = dose: 100.0 mg/kg/injection, schedule: Q04DX003 (ip), vehicle: saline with Tween-80
[9] = dose: 200.0 mg/kg/injection, schedule: Q01DX009 (ip), vehicle: saline with Tween-80
[10] = dose: 200.0 mg/kg/injection, schedule: Q04DX003 (ip), vehicle: saline with Tween-80
[11] = dose: 400.0 mg/kg/injection, schedule: Q01DX009 (ip), vehicle: saline with Tween-80
[12] = dose: 400.0 mg/kg/injection, schedule: Q04DX003 (ip), vehicle: saline with Tween-80
[13] = dose: 100.0 mg/kg/injection, schedule: Q04DX003 (ip), vehicle: Klucel (hydroxypropylcellulose) (HPC)
[14] = dose: 200.0 mg/kg/injection, schedule: Q04DX003 (ip), vehicle: Klucel (hydroxypropylcellulose) (HPC)
[15] = dose: 50.0 mg/kg/injection, schedule: Q04DX003 (ip), vehicle: Klucel (hydroxypropylcellulose) (HPC)
[16] = dose: 100.0 mg/kg/injection, schedule: Q04DX002 (ip), vehicle: Klucel (hydroxypropylcellulose) (HPC)
[17] = dose: 200.0 mg/kg/injection, schedule: Q04DX002 (ip), vehicle: Klucel (hydroxypropylcellulose) (HPC)
[18] = dose: 400.0 mg/kg/injection, schedule: Q04DX002 (ip), vehicle: Klucel (hydroxypropylcellulose) (HPC)
[19] = dose: 50.0 mg/kg/injection, schedule: Q01DX009 (ip), vehicle: Klucel (hydroxypropylcellulose) (HPC)
[20] = dose: 100.0 mg/kg/injection, schedule: Q01DX009 (ip), vehicle: Klucel (hydroxypropylcellulose) (HPC)

Measured: T/C

CS(=O)(=O)CCN1C(=O)C2C3CCC(O3)C2C1=O (configuration not stated)
inactive: [1] 112 % of control | [2] 108 % of control | [3] 97 % of control

Clc1ccc(/C=N/N2CCN(/N=C/c3ccc(Cl)c(Cl)c3)CC2)cc1Cl
inactive: [4] 92 % of control | [5] 92 % of control | [6] 92 % of control

Cc1c(Cl)cccc1NC(=O)Nc1cccc(C(F)(F)F)c1
inactive: dose: 100.0 mg/kg/injection, schedule: Q01DX001 (ip), vehicle: saline with Tween-80 87 % of control and 88 % of control | [7] 94 % of control and 104 % of control | [1] 93 % of control and 90 % of control | [8] 94 % of control | dose: 200.0 mg/kg/injection, schedule: Q01DX001 (ip), vehicle: saline with Tween-80 91 % of control | [9] 93 % of control and 97 % of control | [2] 88 % of control and 89 % of control | [10] 97 % of control | dose: 400.0 mg/kg/injection, schedule: Q01DX001 (ip), vehicle: saline with Tween-80 94 % of control and 89 % of control | [11] 100 % of control and 104 % of control | [3] 100 % of control and 90 % of control | [12] 96 % of control

CCCCn1c(=O)cc[nH]c1=O
inactive: [13] 99 % of control | [14] 91 % of control | dose: 400.0 mg/kg/injection, schedule: Q04DX003 (ip), vehicle: Klucel (hydroxypropylcellulose) (HPC) 93 % of control

COCCN1CCC(CO)C1 (configuration not stated)
inactive: [4] 93 % of control | [5] 98 % of control | [6] 93 % of control

CCCCCCCCCCCCCCCCCN
inactive: dose: 12.5 mg/kg/injection, schedule: Q01DX009 (ip), vehicle: Klucel (hydroxypropylcellulose) (HPC) 100 % of control | dose: 12.5 mg/kg/injection, schedule: Q04DX003 (ip), vehicle: Klucel (hydroxypropylcellulose) (HPC) 93 % of control | dose: 25.0 mg/kg/injection, schedule: Q01DX009 (ip), vehicle: Klucel (hydroxypropylcellulose) (HPC) 101 % of control | dose: 25.0 mg/kg/injection, schedule: Q04DX003 (ip), vehicle: Klucel (hydroxypropylcellulose) (HPC) 100 % of control | [15] 102 % of control

COc1cc(/C=N/NC(=O)c2ccccc2N)ccc1O
inactive: [16] 98 % of control | [17] 106 % of control | [18] 109 % of control

O=S(=O)(Cl)C1c2ccccc2-c2ccccc21
inactive: dose: 100.0 mg/kg/injection, schedule: Q04DX002 (ip), vehicle: other 104 % of control | dose: 200.0 mg/kg/injection, schedule: Q04DX002 (ip), vehicle: other 96 % of control | dose: 400.0 mg/kg/injection, schedule: Q04DX002 (ip), vehicle: other 90 % of control

CC(C)(CNCc1ccco1)[N+](=O)[O-]
inactive: dose: 50.0 mg/kg/injection, schedule: Q01DX009 (ip), vehicle: other 103 % of control | dose: 100.0 mg/kg/injection, schedule: Q01DX009 (ip), vehicle: other 95 % of control | dose: 200.0 mg/kg/injection, schedule: Q01DX009 (ip), vehicle: other 106 % of control

C/C=C1\CN2CCc3c(n(C)c4ccccc34)C2CC1C(=O)OC (configuration not stated)
inactive: [8] 101 % of control | [10] 88 % of control | [12] 106 % of control

COc1ccc(OCC(C)=O)cc1
inactive: [7] 97 % of control | [9] 100 % of control | [11] 100 % of control

Oc1ccc(C2CCCCC2)c(O)c1
inactive: [19] 96 % of control | [15] 101 % of control | [20] 96 % of control | [13] 98 % of control | dose: 200.0 mg/kg/injection, schedule: Q01DX009 (ip), vehicle: Klucel (hydroxypropylcellulose) (HPC) 100 % of control | [14] 103 % of control

Cc1c2ccccc2c(C)c2c1cc(O)c1ccccc12
inactive: [19] 113 % of control | [20] 121 % of control

CCOC(=O)N1C=Cn2c(cnc2C)C1OCC (configuration not stated)
inactive: dose: 50.0 mg/kg/injection, schedule: Q01DX009 (ip), vehicle: saline 109 % of control | dose: 100.0 mg/kg/injection, schedule: Q01DX009 (ip), vehicle: saline 100 % of control and 92 % of control | dose: 100.0 mg/kg/injection, schedule: Q04DX003 (ip), vehicle: saline 91 % of control | dose: 200.0 mg/kg/injection, schedule: Q01DX009 (ip), vehicle: saline 110 % of control and 90 % of control | dose: 200.0 mg/kg/injection, schedule: Q04DX003 (ip), vehicle: saline 94 % of control | dose: 400.0 mg/kg/injection, schedule: Q01DX009 (ip), vehicle: saline 92 % of control

N#Cc1c(Br)n(C2OC(CO)C(O)C2O)c2ncncc12 (configuration not stated)
inactive: dose: 100.0 mg/kg/injection, schedule: Q01DX005 (ip), vehicle: saline 114 % of control | dose: 200.0 mg/kg/injection, schedule: Q01DX005 (ip), vehicle: saline 114 % of control

CCCCNC(=O)c1ccc(C(=O)c2ccc(C(=O)NCCCC)c(C(=O)O)c2)cc1C(=O)O
inactive: [16] 90 % of control | [17] 87 % of control | [18] 87 % of control

CCOC(=O)COc1ccc(-c2ccccc2)cc1Br
inactive: [16] 104 % of control | [17] 104 % of control | [18] 104 % of control

CCCCC(CC)C(=O)N1CCOCC1 (configuration not stated)
inactive: [8] 120 % of control | [10] 114 % of control | [12] 107 % of control

CCOC(=O)/C(O)=C\c1nnc(Cl)cc1Cl
inactive: dose: 75.0 mg/kg/injection, schedule: Q04DX002 (ip), vehicle: Klucel (hydroxypropylcellulose) (HPC) 93 % of control | dose: 150.0 mg/kg/injection, schedule: Q04DX002 (ip), vehicle: Klucel (hydroxypropylcellulose) (HPC) 96 % of control | dose: 300.0 mg/kg/injection, schedule: Q04DX002 (ip), vehicle: Klucel (hydroxypropylcellulose) (HPC) 116 % of control
